For data set [1] the following is noted: cited from earlier work; for pl: Table 3.
Data set [2] concerns btrRCA5 to ATA5 capture oligonucleotide. The data set is described as follows: Accumulation and electronic hybridization in test buffers. The conditions noted are these: for hybridization efficiency: [(specific hybridization)/(transported)] × 100; for transported: fluorescent signal at completion of electronic targeting; for transported / specific hybridization: value +/− SEM, 50 mM buffer; for support of sequence specific electronic hybridization: in words. The procedure: Microelectronic Chips, Permeation Layer and Instrumentation—These have been described previously with the following exception. The permeation layer employed herein has an underlayer of agarose beneath the top streptavidin-containing agarose layer (approximately one micron in total thickness). To make the underlayer, […] glyoxal agarose (2%) was spun on at 2000 rpms for 20 sec prior to the application of the streptavidin-agarose layer. In brief, the 5580 series APEX chip used for these experiments consists of a 5×5 array of […] circular microelectrodes with […] microelectrodes at each corner of the array. Chips were mounted on a micromanipulator stage and the microelectrodes activated by a power supply and appropriately controlled relay switches. Fluorescently labeled oligonucleotides on the chip were visualized using oblique illumination with two 594 nm HeNe lasers and the images were quantified using either NIH Image or IPLab Spectrum software packages.
Accumulation and Hybridization—Two biotinylated capture oligonucleotides, ATA5 and ATA4 were electronically transported and localized at adjacent microelectrodes. The solution was removed and the chip washed 3-4× in test buffer. Buffers employed in these studies are listed in Table 3 and were utilized at the listed pH values and concentrations presented.
The L-isomers of amino acids were used, unless otherwise noted. The chip was equilibrated in test buffer for 5-10 min. Then fresh buffer containing 10 nM BODIPY-Texas Red labeled RCA5 (btrRCA5), an oligonucleotide complementary to ATA5 but not ATA4 (RS paper) was applied.
The […] microelectrodes were employed as cathodes and one microelectrode within the array used as the corresponding anode. Accumulation was assessed by sourcing a 500 nA constant current to individual microelectrodes for 30 sec and monitoring the accumulation of fluorescence at the positively-biased (anode) site in the microelectrode array. Signal arising from non-fluorescent sources (ie. thermal noise, etc.) was subtracted. Experiments examining the effect of different currents upon signal accumulation were conducted in a similar fashion except that the applied current varied from 100 nA to 1 mA. […] For the comparison between conductivities of various buffers, the data is presented as fold increase over initial fluorescence to account for chip-to-chip variation as well as laser illumination variations in signal levels. For other experiments, the data is presented as attomol product versus time, after converting^2 the observed fluorescence intensity to moles of labeled oligonucleotide.
Following accumulation at one microelectrode location, the buffer was removed and fresh buffer containing btrRCA5 applied. An adjacent microelectrode was then sourced in a similar fashion. Upon completion, the buffer was removed and the chip washed 5-7× with test buffer without btrRCA5. The pair of previously targeted microelectrodes were then illuminated and the fluorescence present at each site quantified. Control experiments utilized a bodipy-Texas Red labeled oligonucleotide complementary to ATA4 to verify the integrity and concentration of the ATA4 capture oligonucleotide. Percent hybridization efficiency was calculated as follows: (complementary oligonucleotide signal−noncomplementary signal)/(signal present immediately prior to the end of the applied current)×100.

The nature of data set [3]: Buffer conductivity and pH measurements. Type of data set: physicochemical. On the set-up: conductivity: unit not given here. The settings on record: for conductivity: RT; for pH: in water at room temperature. The procedure:
Buffer Conductivity and pH Measurements—The conductivities of test buffer solutions utilized for transport and hybridization were measured at RT using an Accumet 1.0 cm^−1 glass conductivity cell connected to an Accumet Model 50 pH/Ion/Conductivity meter (Fisher Scientific). Buffer pH values were obtained using an Accu-pHast variable temperature combination electrode and the same model meter.

Data set [4] can be described thus: Conductivity measurements of transport buffers. In kind it is physicochemical. The settings on record: for Average/Std. Deviation / Measurement 1 / Measurement 2 / Measurement 3: conductivity.
In another data set the test system is DNA. The data set is described as follows: DNA transport (accumulation) on the APEX chip. The conditions noted are these: in words, same field conditions.
Data set [5] can be described thus: Buffer capacity, pH and conductivity of buffers used on the APEX chip. The settings on record: for PH: NaPO4: 20 mM adjusted to pH 7.4.

Consider `Cn1cncc1C[C@H](N)C(=O)O` [1(π)-methylhistidine], for which the pl in data set [1] is 7.54. Besides, in data set [2], the hybridization efficiency was 21.3, the transported is recorded as 141 +/− 20 and the specific hybridization is 30.0 +/− 5.0 attomol. Besides, in data set [3] (50 mM), the conductivity was 117 +/− 2.8 and the pH is listed as 7.59.

As for `Cn1cnc(C[C@H](N)C(=O)O)c1` [3(τ)-methylhistidine], in data set [1], the pl is on record as 7.52. In data set [2], the hybridization efficiency is 20.8, the transported is given as 259 +/− 48 and the specific hybridization is reported as 54.0 +/− 14.8 attomol. For the same compound, in data set [3] (50 mM), the conductivity was 39.4 +/− 0.4 and the pH worked out at 7.44.

For `O=C([O-])C(=O)[O-].[Na+].[Na+]` [5 mM NaOxalate], in data set [4], the “Average/Std. Deviation” value is reported as 1.06 +/− 0.055 mS/cm, the “Measurement 1” value stood at 1.02 mS/cm, the “Measurement 2” value is given as 1.03 mS/cm and the “Measurement 3” value is 1.12 mS/cm.

Turning to `[Cl-].[Cl-].[Mg+2]` [10 mM MgCl2, MgCl2], in data set [4], the “Average/Std. Deviation” value is given as 2.03 +/− 0.09 mS/cm, the “Measurement 1” value is 1.95 mS/cm, the “Measurement 2” value is 2.02 mS/cm and the “Measurement 3” value is listed as 2.13 mS/cm. Also, in data set [4] (listed as 0.1 mM MgCl2), the “Average/Std. Deviation” value is recorded as 17.3 +/− 0.87 μS/cm, the “Measurement 1” value came out at 16.9 μS/cm, the “Measurement 2” value was found to be 16.7 μS/cm and the “Measurement 3” value came out at 18.3 μS/cm. Further, in data set [4] (listed as 1 mM MgCl2), the “Average/Std. Deviation” value is given as 186 +/− 18.8 μS/cm, the “Measurement 1” value came out at 174 μS/cm, the “Measurement 2” value was found to be 208 μS/cm and the “Measurement 3” value worked out at 177 μS/cm.

As to `CC(=O)[O-].[Na+]` [10 mM NaAcetate], in data set [4], the “Average/Std. Deviation” value was 934 +/− 43.5 μS/cm, the “Measurement 1” value came to 901 μS/cm, the “Measurement 2” value worked out at 917 μS/cm and the “Measurement 3” value worked out at 983 μS/cm.

Turning to `[Cl-].[Na+]` [10 mM NaCl, NaCl], in data set [4], the “Average/Std. Deviation” value was 1.12 +/− 0.057 mS/cm, the “Measurement 1” value stood at 1.07 mS/cm, the “Measurement 2” value was found to be 1.10 mS/cm and the “Measurement 3” value was found to be 1.18 mS/cm. For the same compound, in data set [4] (listed as 0.1 mM NaCl), the “Average/Std. Deviation” value was 9.43 +/− 0.93 μS/cm, the “Measurement 1” value is listed as 8.80 μS/cm, the “Measurement 2” value is recorded as 8.98 μS/cm and the “Measurement 3” value amounted to 10.5 μS/cm. Also, in data set [4] (listed as 1 mM NaCl), the “Average/Std. Deviation” value was 112.7 +/− 2.08 μS/cm, the “Measurement 1” value is recorded as 112 μS/cm, the “Measurement 2” value was found to be 115 μS/cm and the “Measurement 3” value is 111 μS/cm.

With `NC(CO)(CO)CO` [50 mM TRIS, TRIS], in data set [4], the “Average/Std. Deviation” value was 3.35 +/− 0.19 mS/cm, the “Measurement 1” value came out at 3.50 mS/cm, the “Measurement 2” value is recorded as 3.14 mS/cm and the “Measurement 3” value is recorded as 3.40 mS/cm. Besides, in data set [4] (listed as 10 mM TRIS), the “Average/Std. Deviation” value is listed as 572 +/− 10.5 μS/cm, the “Measurement 1” value is 572 μS/cm, the “Measurement 2” value is reported as 562 μS/cm and the “Measurement 3” value is 583 μS/cm.

With `N[C@H](Cc1c[nH]cn1)C(=O)O` [D-histidine], the pl in data set [1] was 7.47. Besides, in data set [2], the hybridization efficiency is reported as 24.3, the transported is given as 490 +/− 50 and the specific hybridization is recorded as 119 +/− 11.8 attomol. For the same compound, in data set [3] (50 mM), the conductivity is given as 57.1 +/− 0.3 and the pH came to 7.70.

For `N[C@@H](Cc1c[nH]cn1)C(=O)O` [L-histidine], the pl in data set [1] is on record as 7.47. In data set [2], the “non-specific signal as compared to the amount of material transported” value came out at 2.2%, the hybridization efficiency was 14.6, the transported was 533 +/− 65 and the specific hybridization is listed as 78.0 +/− 9.1 attomol. Besides, in data set [3] (50 mM), the conductivity is listed as 60.1 +/− 0.1 and the pH is reported as 7.65.

In the case of `O=P(O)(O)O` [NaPO4, Sodium Phosphate], in the data set with DNA, the transport entry is “fair transport”. Further, in data set [5], the conductivity was 1,400.0 μS and the PH stood at 7.4. Also, the conductance in data set [4] is given as roughly 2.9 mS/cm. Besides, in data set [4] (listed as 1 mM NaPO4), the “Average/Std. Deviation” value is listed as 128.7 +/− 7.0 μS/cm, the “Measurement 1” value was determined as 122 μS/cm, the “Measurement 2” value is recorded as 128 μS/cm and the “Measurement 3” value came out at 136 μS/cm. Also, in data set [4] (listed as 10 mM NaPO4), the “Average/Std. Deviation” value is recorded as 1.44 +/− 0.04 mS/cm, the “Measurement 1” value is 1.40 mS/cm, the “Measurement 2” value amounted to 1.44 mS/cm and the “Measurement 3” value is 1.48 mS/cm. Further, in data set [4] (listed as 20 mM NaPO4), the “Average/Std. Deviation” value is 2.90 +/− 0.11 mS/cm, the “Measurement 1” value is recorded as 2.90 mS/cm, the “Measurement 2” value is recorded as 2.79 mS/cm and the “Measurement 3” value was found to be 3.00 mS/cm.

On to `NCCS(=O)(=O)O` [Taurine], for which the transport result with DNA is on record as “excellent transport”. Also, in data set [5], the conductivity was 4.5 μS and the PH turned out to be 4.6.

As for `NCCC(=O)N[C@@H](Cc1cnc[nH]1)C(=O)O` [carnosine], in data set [1], the pl was 8.17. In addition, in data set [2], the hybridization efficiency is on record as 26.1, the transported is 129 +/− 45 and the specific hybridization is recorded as 33.7 +/− 12.1 attomol. In addition, in data set [3] (50 mM), the conductivity was 74.5 +/− 5.5 and the pH was found to be 8.07.

With `Cc1cc(C)nc(C)c1` [collidine], in data set [2], the hybridization efficiency was found to be 3.7, the transported is 382 +/− 63 and the specific hybridization was 14.1 +/− 4.6 attomol.

Consider `N[C@@H](CCC(=O)O)C(=O)O` [glutamic acid], for which the pI in data set [1] is 3.22.

Take `NCC(=O)O` [glycine]: the pl in data set [1] is recorded as 5.97. Besides, in data set [2], the “support of sequence specific electronic hybridization” value is listed as “neither GABA, b-alanine, nor glycine was capable of supporting sequence specific hybridization”. For the same compound, the conductivity in data set [3] (50 mM) was 2.5 +/− 0.2; in data set [3] (250 mM) it was 7.8 +/− 0.5. The figures for the pH in data set [3] (50 mM) and in data set [3] (250 mM) were 6.01 and 6.11, respectively.

As for `c1ccncc1` [pyridine], in data set [2], the transported was 764 +/− 66 and the specific hybridization is recorded as 12.8 +/− 4.2 attomol. In data set [3] (50 mM), the conductivity was 5.0 +/− 0.8 and the pH amounted to 8.17.

With `NCCC(=O)O` [β-Alanine], in the data set with DNA, the transport result is given as “excellent transport”. Moreover, in data set [1] (Table 2), the pK1 entry is “pK1 - 3.6” and the pK2 result was “pK2 - 10.2”. Besides, the pl in data set [1] is 6.90. For the same compound, in data set [5], the conductivity worked out at 10.0 μS and the PH turned out to be 7.3. Besides, in data set [2], the “support of sequence specific electronic hybridization” value is “neither GABA, b-alanine, nor glycine was capable of supporting sequence specific hybridization”. In addition, in data set [3] (50 mM), the conductivity is listed as 3.6 +/− 0.6 and the pH is 6.71.

The compound Tris-Borate [100 mM Tris-Borate] displayed a conductivity in data set [4] of 694 μS/cm.

(Values after US8114589B2, “Self-addressable self-assembling microelectronic integrated systems, component devices, mechanisms, methods, and procedures for molecular biological analysis and diagnostics” (Gamida For Life B.V., priority 1996, dated 2012).)
